Experimental data from the supplement of paper PMC10331698.
± gives the standard deviation of the averaged measurements.

Assays:
Experiment in all cases: level (log10 ratio to DMSO vehicle control); higher = higher biomarker level / cell amount than vehicle control
Settings in all cases: in DMSO
[1] = compound: O=C(O)C(F)(F)C(F)(F)C(F)(F)C(F)(F)C(F)(F)C(F)(F)C(F)(F)C(F)(F)C(F)(F)C(F)(F)C(F)(F)C(F)(F)C(F)(F)F [Perfluorotetradecanoic acid]
Experimental: (§1)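 BioMAP Diversity Plus panel of 12 human primary cell co-culture systems (3C, 4H, LPS, SAg, BT, BF4T, BE3C, CASM3C, HDF3CGF, KF3CT, MyoF, Mphg). Compounds were added 1 h before stimulation and left for 24 h (MyoF 48 h; BT 72 h for soluble read-outs or 6 d for IgG). Biomarkers were read by ELISA, cytotoxicity by SRB, PBMC viability and proliferation by Alamar Blue. Each well value was divided by the mean of 8 DMSO control wells on the same plate and log10 transformed; duplicate blinded samples were tested at 4 concentrations.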

[2] = compound: CC(C)(C)C(=O)CC(=O)C(F)(F)C(F)(F)C(F)(F)F [(Heptafluorobutanoyl)pivaloylmethane]
Experimental: as §1

Perfluorooctanamide = compound: NC(=O)C(F)(F)C(F)(F)C(F)(F)C(F)(F)C(F)(F)C(F)(F)C(F)(F)F [Perfluorooctanamide]
Experimental: as §1

| Test System | level (log10) ([1]; 6700 nM) | level (log10) ([1]; 20000 nM) | level (log10) ([2]; 6700 nM) | level (log10) ([2]; 20000 nM) | level (log10) ([2]; 60000 nM) | level (log10) (Perfluorooctanamide; 6700 nM) | level (log10) (Perfluorooctanamide; 20000 nM) | level (log10) (Perfluorooctanamide; 60000 nM) |
| --- | --- | --- | --- | --- | --- | --- | --- | --- |
| HDF3CGF:Collagen I | -0.0105 ± 0.076 | 0.016 ± 0.078 | -0.0025 ± 0.029 | -0.044 ± 0.04 | 0.0405 ± 0.044 | -0.0135 ± 0.043 | -0.0555 ± 0.013 | 0.0095 ± 0.081 |
| HDF3CGF:Collagen III | -0.114 ± 0.057 | -0.094 ± 0.13 | -0.008 ± 0.11 | 0.0535 ± 0.025 | 0.0555 ± 0.018 | -0.018 ± 0.014 | -0.02 ± 0.0014 | -0.0085 ± 0.056 |
| HDF3CGF:EGFR | -0.0725 ± 0.036 | 0.029 ± 0.081 | 0.027 ± 0.016 | -0.102 ± 0.031 | 0.009 ± 0.055 | 0.008 ± 0.013 | 0.0125 ± 0.015 | 0.0375 ± 0.042 |
| HDF3CGF:M-CSF | 0.041 ± 0.038 | 0 ± 0.067 | 0.026 ± 0.014 | 0.03 ± 0.038 | 0 ± 0.028 | 0.001 ± 0.023 | 0.0055 ± 0.00071 | 0.027 ± 0.0014 |
| HDF3CGF:MMP-1 | -0.044 ± 0.016 | -0.019 ± 0.0071 | 0.006 ± 0.0071 | -0.002 ± 0.0014 | 0.01 ± 0.024 | 0.0175 ± 0.00071 | 0.003 ± 0.0071 | -0.0025 ± 0.028 |
| HDF3CGF:PAI-I | 0.0475 ± 0.023 | 0.0405 ± 0.021 | 0.011 ± 0.016 | 0.0255 ± 0.00071 | 0.0685 ± 0.049 | -0.016 ± 0.013 | -0.03 ± 0.0099 | -0.0235 ± 0.0078 |
| HDF3CGF:Proliferation 72hr | 0.0655 ± 0.046 | -0.063 ± 0.054 | -0.0465 ± 0.028 | 0.097 ± 0.031 | 0.094 ± 0.014 | 0.0335 ± 0.049 | 0.004 ± 0.023 | -0.0165 ± 0.022 |
| HDF3CGF:SRB | 0.027 ± 0.014 | 0.0205 ± 0.069 | 0.0015 ± 0.0021 | 0.0085 ± 0.013 | 0.0345 ± 0.032 | 0.01 ± 0.028 | -0.0025 ± 0.033 | 0.0285 ± 0.019 |
| HDF3CGF:TIMP-1 | 0.014 ± 0.037 | -0.0385 ± 0.11 | -0.011 ± 0.03 | -0.0005 ± 0.005 | 0.0085 ± 0.018 | -0.0405 ± 0.049 | -0.022 ± 0.02 | -0.0575 ± 0.0035 |
| HDF3CGF:TIMP-2 | 0.091 ± 0.0085 | 0.036 ± 0.05 | -0.0005 ± 0.019 | -0.006 ± 0.013 | -0.019 ± 0.016 | -0.0085 ± 0.005 | -0.035 ± 0.011 | -0.0145 ± 0.022 |
| KF3CT:CCL2/MCP-1 | 0.004 ± 0.0071 | 0.0205 ± 0.0078 | 0.0025 ± 0.005 | 0.035 ± 0.0085 | 0.0645 ± 0.013 | -0.011 ± 0.017 | -0.034 ± 0.031 | -0.091 ± 0.0028 |
| KF3CT:CD54/ICAM-1 | -0.003 ± 0.027 | -0.0375 ± 0.015 | -0.0095 ± 0.011 | -0.0265 ± 0.018 | -0.021 ± 0.0042 | 0.0015 ± 0.0078 | 0 ± 0.014 | 0.001 |
| KF3CT:CXCL8/IL-8 | 0.0005 ± 0.013 | 0.0245 ± 0.025 | -0.015 ± 0.011 | -0.0165 ± 0.0078 | 0.016 ± 0.0014 | -0.005 ± 0.0014 | -0.027 ± 0.018 | -0.062 ± 0.0057 |
| KF3CT:CXCL9/MIG | -0.0065 ± 0.016 | 0.0055 ± 0.00071 | 0.0025 ± 0.0035 | -0.002 ± 0.0042 | 0.0055 ± 0.0021 | 0.0035 ± 0.039 | 0.0105 ± 0.016 | 0.018 ± 0.0042 |
| KF3CT:CXCL10/IP-10 | 0.0065 ± 0.016 | -0.0165 ± 0.016 | 0.004 ± 0.0099 | -0.006 ± 0.0028 | 0.007 ± 0.0014 | 0.0285 ± 0.036 | 0.0365 ± 0.037 | 0.0365 ± 0.016 |
| KF3CT:IL-1alpha | -0.0135 ± 0.081 | -0.0235 ± 0.054 | 0.02 ± 0.021 | 0.015 ± 0.013 | 0.02 ± 0.023 | -0.0055 ± 0.011 | 0.0125 ± 0.0064 | 0.039 ± 0.03 |
| KF3CT:MMP-9 | -0.005 ± 0.0014 | 0.0065 ± 0.032 | -0.018 ± 0.0099 | -0.0175 ± 0.023 | -0.014 ± 0.041 | -0.011 ± 0.017 | -0.0265 ± 0.0092 | -0.0905 ± 0.0021 |
| KF3CT:PAI-I | -0.015 ± 0.0014 | 0 ± 0.0071 | -0.0065 ± 0.019 | -0.0025 ± 0.016 | 0.004 ± 0.02 | -0.004 ± 0.011 | -0.0085 ± 0.011 | 0.0005 ± 0.0064 |

| Test System | level (log10) ([1]; 6700 nM) | level (log10) ([1]; 20000 nM) | level (log10) ([2]; 6700 nM) | level (log10) ([2]; 20000 nM) | level (log10) ([2]; 60000 nM) | level (log10) (Perfluorooctanamide; 6700 nM) | level (log10) (Perfluorooctanamide; 20000 nM) | level (log10) (Perfluorooctanamide; 60000 nM) |
| --- | --- | --- | --- | --- | --- | --- | --- | --- |
| KF3CT:SRB | -0.0005 ± 0.0035 | 0.0025 ± 0.0078 | -0.0055 ± 0.0021 | -0.003 ± 0.0071 | -0.0065 ± 0.005 | -0.0065 ± 0.005 | -0.0075 ± 0.0035 | 0 ± 0.0028 |
| KF3CT:TIMP-2 | 0.0455 ± 0.032 | 0.0065 ± 0.012 | 0.001 ± 0.021 | 0.002 ± 0.014 | -0.015 ± 0.0014 | -0.045 ± 0.0085 | -0.0245 ± 0.04 | -0.033 ± 0.011 |
| KF3CT:uPA | -0.014 ± 0.038 | 0.0115 ± 0.032 | 0.0025 ± 0.016 | -0.0055 ± 0.012 | -0.003 ± 0.027 | -0.012 ± 0.037 | 0.0035 ± 0.015 | -0.0155 ± 0.012 |
| MyoF:CD106/VCAM-1 | -0.0045 ± 0.019 | 0.013 ± 0.025 | -0.011 ± 0.035 | -0.0065 ± 0.028 | 0.005 ± 0.0085 | -0.0115 ± 0.015 | 0.014 ± 0.0014 | -0.0185 ± 0.011 |
| MyoF:CXCL8/IL-8 | 0.0095 ± 0.0078 | 0.017 ± 0.0071 | 0.022 ± 0.05 | 0.032 ± 0.068 | 0.03 ± 0.055 | -0.01 ± 0.0071 | 0.0135 ± 0.023 | 0.03 ± 0.014 |
| MyoF:Collagen I | 0.0015 ± 0.0078 | 0.0215 ± 0.033 | -0.0165 ± 0.011 | -0.007 ± 0.0099 | 0.0065 ± 0.013 | -0.007 ± 0.0099 | -0.0265 ± 0.015 | -0.0435 ± 0.0035 |
| MyoF:Collagen III | -0.015 | -0.002 ± 0.03 | -0.0115 ± 0.0021 | -0.002 ± 0.013 | 0.026 ± 0.0028 | -0.0005 ± 0.029 | 0.0045 ± 0.033 | 0.002 ± 0.013 |
| MyoF:Collagen IV | -0.002 ± 0.0071 | 0.023 ± 0.016 | -0.0345 ± 0.021 | -0.0295 ± 0.0092 | 0.0005 ± 0.0021 | -0.0335 ± 0.026 | -0.0345 ± 0.042 | -0.079 ± 0.064 |
| MyoF:Decorin | 0.033 ± 0.027 | 0.0515 ± 0.026 | 0.0195 ± 0.059 | 0.018 ± 0.03 | 0.0365 ± 0.021 | -0.0145 ± 0.05 | 0.027 ± 0.078 | 0.0305 ± 0.04 |
| MyoF:MMP-1 | -0.0305 ± 0.015 | 0.002 ± 0.017 | -0.036 ± 0.013 | -0.0255 ± 0.025 | 0.025 ± 0.058 | -0.0075 ± 0.011 | -0.013 ± 0.04 | -0.0045 ± 0.026 |
| MyoF:PAI-I | 0.0115 ± 0.0064 | 0.006 | 0.009 ± 0.016 | 0.009 ± 0.024 | 0.0195 ± 0.018 | -0.009 | -0.014 ± 0.0071 | 0.005 ± 0.0014 |
| MyoF:SRB | 0.0025 ± 0.0021 | 0.0055 ± 0.0078 | -0.0015 ± 0.0064 | -0.0085 ± 0.012 | -0.002 ± 0.0057 | -0.006 ± 0.0042 | 0.0045 ± 0.012 | -0.0055 ± 0.011 |
| MyoF:TIMP-1 | 0.0075 ± 0.049 | 0.0345 ± 0.013 | 0.0095 ± 0.028 | 0.0135 ± 0.06 | 0.009 ± 0.047 | -0.016 ± 0.014 | 0.0075 ± 0.012 | -0.0375 ± 0.0021 |
| MyoF:alpha-SM Actin | -0.008 | -0.032 ± 0.0085 | -0.006 ± 0.05 | -0.002 ± 0.034 | -0.0215 ± 0.0021 | -0.0095 ± 0.005 | -0.023 ± 0.017 | -0.045 ± 0.0085 |
| MyoF:bFGF | 0.0075 ± 0.00071 | 0.0315 ± 0.018 | 0.002 ± 0.0028 | 0.0065 ± 0.0035 | 0.021 ± 0.0071 | -0.005 ± 0.0014 | -0.0055 ± 0.015 | 0.007 ± 0.0014 |
| lMphg:CCL2/MCP-1 | -0.013 ± 0.014 | -0.004 ± 0.0099 | -0.0135 ± 0.025 | -0.018 ± 0.0071 | -0.0255 ± 0.021 | 0.012 ± 0.013 | 0.001 ± 0.025 | -0.0235 ± 0.035 |
| lMphg:CCL3/MIP-1alpha | -0.02 ± 0.042 | -0.004 ± 0.02 | -0.011 ± 0.021 | -0.0185 ± 0.013 | -0.067 ± 0.11 | -0.0155 ± 0.0064 | -0.021 ± 0.017 | -0.028 ± 0.024 |
